# Measured values published in US12673081B2, “Traditional CHINESE medicine compound composition with immune bidirectional regulation effect and preparation method and applications thereof” (Chenland Nutritionals Inc., priority 2020, dated 2026).
# Assays:
# [1] = system: guinea pig model with allergic rhinitis; test: Allergic rhinitis experiment: symptom observation (nose scratching, sneezing, symptom score) after OVA nasal instillation; type: in vivo; settings: guinea pigs, gavage 28 days, D1 41, D2 45, D3 116, D4 116, D5 58, D6 116, D7 233, D8 16 mg/kg
# Source text: (§1) On the day of modeling, drugs were given by gavage. Each guinea pig was given once a day, and the Placebo group was given equal volume of drug solution every day for 4 weeks, i.e. 28 days.
# [2] = system: guinea pig model with allergic rhinitis; test: Allergic rhinitis experiment: number and time points of deaths in each group; type: in vivo; settings: surviving guinea pigs of 10 in group; D1 41, D2 45, D3 116, D4 116, D5 58, D6 116, D7 233, D8 16 mg/kg
# Source text: 100 guinea pigs were divided into 20 cages with 5 guinea pigs in each cage. After 7 days of adaptive growth without abnormalities, 90 guinea pigs were used for the construction and induction of allergic rhinitis model, and the remaining 10 guinea pigs were used for normal control. During the whole experiment, the animals were looked after and treated in strict accordance with the animal ethics law.
# as §1
# [3] = system: eosinophils in nasal lavage solution; test: Counting of eosinophils in nasal lavage solution; type: in vivo, guinea pig; settings: guinea pigs
# Experimental: (§2) 1) After scoring on the second day after the last administration, guinea pigs were anesthetized by intraperitoneal injection of 10% chloral hydrate with the anesthetic dosage of 0.35 ml/100 g;
# 2) The guinea pig was fixed in a supine and low head position, the normal saline was slowly dropped into one nasal cavity at the rate of 1 ml/min, and the contralateral nasal cavity was continuously pumped with low negative pressure;
# 3) A small amount of the recovered lavage solution was taken immediately and put into a leukocyte counting plate to count the total number of leukocytes;
# 4) The remaining lavage solution was added with EDTA ([…]) and centrifuged at 14000 rpm at 4° C. for 15 minutes. And the supernatant was stored at −80° C. for use.
# [4] = system: histamine, IgE, IL-4, IFN-γ, thromboxane B2 and leukotriene; test: Final plasma cytokines of guinea pigs by ELISA; type: in vivo, guinea pig
# Experimental: as §2
# 2) The abdominal cavity was opened, and a 5 ml sterile syringe was inserted into the abdominal vein of the guinea pig, and the venous blood was drawn;
# 3) The drawn venous blood was put into a heparin tube, mixed well, and left in a chromatography freezer at 4° C. overnight.
# 4) After centrifugation at 14000 rpm at 4° C. for 15 minutes, the supernatant was taken and stored at −80° C. for use.
# 1.6 The expression levels of cytokines in guinea pig serum and nasal lavage solution were detected by ELISA. The final serum and nasal lavage solution were taken for the determination of histamine, IgE, IL-4, IFN-γ, thromboxane B2 and leukotriene.
# 1) taking out the ELISA kit from the refrigerator and balancing it at room temperature for 20 min;
# 3) after sealing the film with a film sealing plate, placing it in a 37° C. incubator for incubation for 30 min;
# 4) discarding the liquid in the wells, gently spin drying it, and adding 50 μL biotin labeled antibody working solution to each well, and incubating in a 37° C. incubator for 30 min;
# 5) carefully removing the sealing film, pouring out the liquid in the wells, gently spin drying it, adding washing liquid into each well, standing at room temperature for 30 seconds and then pouring it out, repeating this operation for 5 times and gently patting it dry;
# 6) adding 50 μL horseradish peroxidase labeled avidin working solution to each well, and incubating in a 37° C. incubator for 30 min;
# 7) pouring out the liquid in the wells, gently spin drying it, adding washing liquid into each well, standing at room temperature for 30 seconds and then pouring it out, repeating this operation for 5 times and gently patting it dry; and
# 8) adding 100 μL color developing solution to each well in turn, and developing color in a 37° C. incubator without light for […];
# 9) adding […] termination solution to each well to terminate the reaction, then zeroing the blank wells and measure the absorbance (OD value) of each well at 450 nm wavelength, where the determination shall be carried out within 15 min after the termination solution is added.
# [5] = system: nasal mucosa; test: HE staining of final nasal mucosa of guinea pigs; type: in vivo, guinea pig; settings: gavage 28 days, D1 41, D2 45, D3 116, D4 116, D5 58, D6 116, D7 233, D8 16 mg/kg
# Experimental: as §2
# 2) After peeling off the nasal skin, the maxilla together with the nasal cavity were removed, and the bilateral nasal cavities were completely separated from the middle incisors;
# 3) The nasal mucosa was carefully removed and fixed with 4% paraformaldehyde for HE staining;
# 4) All the HE stained pathological sections were observed under the light microscope.
# The mucosal tissues fixed in 4% glutaraldehyde solution were taken out and made into 5 μm thick paraffin sections for HE staining.
# 1) 60%, 70%, 80% and 90% gradient ethanol of the fixed sample were used to dehydrate for 8 h respectively;
# 2) 100% ethanol I and II were used to dehydrated for 1 h respectively;
# 3) The xylene I and II were used to make the specimens transparent for 15 min respectively;
# 4) The specimens were soaked in liquid paraffin and placed in a 65° C. oven for 2 h;
# 5) The soaked paraffin specimens were taken out and embedded in paraffin;
# 6) The paraffin was cut into 5 μm thick sections and subjected to HE staining.
# 1) Xylene I and II for 15 min respectively;
# 2) Gradient ethanol hydration to distilled water;
# 3) Hematoxylin staining for 5 min;
# 4) Differentiation with 1% hydrochloric acid and ethanol for 1 min; […]
# [6] = final plasma, gavage 28 days, D1 41, D2 45, D3 116, D4 116, D5 58, D6 116, D7 233, D8 16 mg/kg
structure (smiles),measurement,setting,value
"CCOC(=O)N1CCC(=C2c3ccc(Cl)cc3CCc3cccnc32)CC1 [D8, Loratadine]",nose scratching times decreased compared with the model group,[1],57.0%
same,sneeze times decreased compared with the model group,[1],54.4%
same,Final scoring of symptom observation,[1]; score 1-3 per Table 2,1.50 ± 0.50
same,Final number,[2],8
same,Number after enhanced sensitization,[2],8
same,Number after nasal instillation,[2],8
same,number of eosinophils in nasal lavage solution decreased compared with the model group,"[3]; D1 41, D2 45, D3 116, D4 116, D5 58, D6 116, D7 233, D8 16 mg/kg",52.2%
same,number of eosinophils in nasal lavage solution compared with the model group,"[3]; D8 16 mg/kg, p<0.01",decreased significantly
same,Number of eosinophils,"[3]; nasal lavage solution, gavage 28 days, D1 41, D2 45, D3 116, D4 116, D5 58, D6 116, D7 233, D8 16 mg/kg",3.50 ± 1.12 PCs./ml
same,Histamine,[4]; [6],23.78 ± 3.86 ng/mL
same,IFN-γ,[4]; [6],113.74 ± 12.59 pg/mL
same,IL-4,[4]; [6],138.64 ± 39.91 pg/mL
same,IgE,[4]; [6],41.86 ± 7.34 ng/mL
same,LTB4,[4]; [6],32.00 ± 6.71 ng/mL
same,TXB2,[4]; [6],24.86 ± 4.5 ng/mL
same,contents of TXB2 and TLB4 in nasal lavage solution versus model control group,[4]; p<0.05,significant difference compared with the model control group
same,serum IgE content versus model group,[4]; significantly different from model group (p<0.05),reduce the serum IgE content
same,pathological analysis of HE stained nasal mucosa,[5],the inflammatory reaction in nasal mucosa of guinea pigs was significantly reduced
